This passage reports EC50 and Ki results from US20160158377A1, “BCL-XL Inhibitory Compounds and Antibody Drug Conjugates Including the Same” (AbbVie Inc., priority 2014, published 2016).

Each structure is given as a SMILES string. Like-named read-outs stand apart in the source and are kept apart here. Where only a bound is given, the exact number is not on record here.

The subject of experiment [1] is Molt-4 human acute lymphoblastic leukemia cells. Kind of experiment: Molt-4 cell viability assay. The class given is cell-based. As to conditions: 10% human serum, 48 hours, CellTiter-Glo, read-out: Molt-4 Viability EC50 (nM, 10% HS). The method, then:
In one exemplary set of conditions, Molt-4 (ATCC, Manassas, Va.) human acute lymphoblastic leukemia cells were plated 12,500 cells per well in 384-well tissue culture plates (Corning, Corning, N.Y.) in a total volume of 25 μL tissue culture medium supplemented with 10% human serum (Sigma-Aldrich, St. Louis, Mo.) and treated with a 3-fold serial dilution of the compounds of interest from 10 μM to 0.0005 μM. Each concentration was tested in duplicate at least 3 separate times. The number of viable cells following 48 hours of compound treatment was determined using the CellTiter-Glo® Luminescent Cell Viability Assay according to the manufacturer's recommendations (Promega Corp., Madison, Wis.). Compounds were tested in the presence of 10% HS.

Experiment [2] has as its target Bcl-xL (Homo sapiens, UniProt Q07817). Kind of experiment: TR-FRET Bcl-xL binding assay (competition with probe F-Bak). As to the method: For the assay, test compounds were serially diluted in DMSO starting at 50 μM (2× starting concentration; 10% DMSO) and 10 μL transferred into a 384-well plate. 10 μL of a protein/probe/antibody mix was then added to each well at final concentrations listed below:
The samples were then mixed on a shaker for 1 minute and incubated for an additional 2 hours at room temperature. For each assay plate, a probe/antibody and protein/antibody/probe mixture were included as a negative and a positive control, respectively. Fluorescence was measured on the Envision (Perkin Elmer) using a 340/35 nm excitation filter and 520/525 (F-Bak) and 495/510 nm (Tb-labeled anti-his antibody) emission filters. Dissociation constants (Ki) were determined using Wang's equation (Wang, 1995, FEBS Lett. 360:111-114). The TR-FRET assay can be performed in the presence of varying concentrations of human serum (HS) or fetal bovine serum (FBS). Compounds were tested both without HS and in the presence of 1% HS.

Setting [3] is: in the presence of 1% human serum (HS), read-out: Bcl-xL Binding Ki (nM, 1% HS).
Setting [4] is: without human serum, read-out: Bcl-xL Binding Ki.

Chain of Bcl-xL (Q07817 whole entry): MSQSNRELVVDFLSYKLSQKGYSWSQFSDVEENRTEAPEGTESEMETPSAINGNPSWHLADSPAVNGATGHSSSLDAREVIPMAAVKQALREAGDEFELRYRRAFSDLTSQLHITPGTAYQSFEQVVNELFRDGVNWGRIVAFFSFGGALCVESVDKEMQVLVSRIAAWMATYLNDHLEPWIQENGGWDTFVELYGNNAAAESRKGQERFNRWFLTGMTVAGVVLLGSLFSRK

Regarding `Cc1c(-c2ccc(N3CCc4c(C#N)ccc(C(=O)Nc5nc6ccccc6s5)c4C3)nc2C(=O)O)cnn1CC12CC3(C)CC(C)(C1)CC(OCCN)(C3)C2` [Compound W3.13, 3-(1-{[3-(2-aminoethoxy)-5,7-dimethyltricyclo[3.3.1.1^3,7]dec-1-yl]methyl}-5-methyl-1H-pyrazol-4-yl)-6-[8-(1,3-benzothiazol-2-ylcarbamoyl)-5-cyano-3,4-dihydroisoquinolin-2(1H)-yl]pyridine-2-carboxylic acid], the EC50 (in general, the midpoint of the concentration-response curve) in experiment [1] worked out at 2290 nM. Besides, the Ki (as a rule, a measure of affinity in units of concentration, obtained from inhibition or displacement) in experiment [2] (setting [3]) turned out to be 6.8 nM; in experiment [2] (setting [4]), 0.013 nM.
With `Cc1c(-c2ccc(N3CCc4scc(C(=O)Nc5nc6ccccc6s5)c4C3)nc2C(=O)O)cnn1CC12CC3(C)CC(C)(C1)CC(OCCN)(C3)C2` [Compound W3.19, 3-(1-{[3-(2-aminoethoxy)-5,7-dimethyltricyclo[3.3.1.1^3,7]dec-1-yl]methyl}-5-methyl-1H-pyrazol-4-yl)-6-[3-(1,3-benzothiazol-2-ylcarbamoyl)-6,7-dihydrothieno[3,2-c]pyridin-5(4H)-yl]pyridine-2-carboxylic acid], the EC50 in experiment [1] was > 10000 nM. In addition, the Ki came out at 309 nM in experiment [2] (setting [3]) and 21 nM in experiment [2] (setting [4]).
For the compound `CNC(=O)CCNCCOC12CC3(C)CC(C)(CC(Cn4ncc(-c5ccc(N6CCc7cccc(C(=O)Nc8nc9ccccc9s8)c7C6)nc5C(=O)O)c4C)(C3)C1)C2` [Compound W3.39, 6-[8-(1,3-benzothiazol-2-ylcarbamoyl)-3,4-dihydroisoquinolin-2(1H)-yl]-3-(1-{[3,5-dimethyl-7-(2-{[3-(methylamino)-3-oxopropyl]amino}ethoxy)tricyclo[3.3.1.1^3,7]dec-1-yl]methyl}-5-methyl-1H-pyrazol-4-yl)pyridine-2-carboxylic acid], the EC50 in experiment [1] was determined as 37.7 nM. For the same compound, the Ki in experiment [2] (setting [3]) worked out at 0.44 nM; in experiment [2] (setting [4]), 0.015 nM.
For `CNCCOC12CC3(C)CC(C)(CC(Cn4ncc(-c5ccc(-c6ccc7nccc(C(=O)Nc8nc9ccccc9s8)c7c6)nc5C(=O)O)c4C)(C3)C1)C2` [Compound W3.11, 6-[4-(1,3-benzothiazol-2-ylcarbamoyl)quinolin-6-yl]-3-[1-({3,5-dimethyl-7-[2-(methylamino)ethoxy]tricyclo[3.3.1.1^3,7]dec-1-yl}methyl)-5-methyl-1H-pyrazol-4-yl]pyridine-2-carboxylic acid] the same measures were 34.3 nM, 0.94 nM and < 0.001 nM.
`CNCCOC12CC3(C)CC(C)(CC(Cn4ncc(-c5ccc(N6CCc7c(N)ccc(C(=O)Nc8nc9ccccc9s8)c7C6)nc5C(=O)O)c4C)(C3)C1)C2` [Compound W3.24, 6-[5-amino-8-(1,3-benzothiazol-2-ylcarbamoyl)-3,4-dihydroisoquinolin-2(1H)-yl]-3-[1-({3,5-dimethyl-7-[2-(methylamino)ethoxy]tricyclo[3.3.1.1^3,7]dec-1-yl}methyl)-5-methyl-1H-pyrazol-4-yl]pyridine-2-carboxylic acid]: the concentration for a half-maximal effect (EC50) in experiment [1] turned out to be 2210 nM. The Ki worked out at 8.14 nM in experiment [2] (setting [3]) and 0.794 nM in experiment [2] (setting [4]).
For `CNCCOC12CC3(C)CC(C)(CC(Cn4ncc(-c5ccc(-c6[nH]c7c(C(=O)Nc8nc9ccccc9s8)cccc7c6C)nc5C(=O)O)c4C)(C3)C1)C2` [Compound W3.29, 6-[7-(1,3-benzothiazol-2-ylcarbamoyl)-3-methyl-1H-indol-2-yl]-3-[1-({3,5-dimethyl-7-[2-(methylamino)ethoxy]tricyclo[3.3.1.1^3,7]dec-1-yl}methyl)-5-methyl-1H-pyrazol-4-yl]pyridine-2-carboxylic acid] the same measures were 185 nM, 0.09 nM and < 0.01 nM.
In the same order, the values of `Cc1c(-c2ccc(N3CCc4cccc(C(=O)Nc5nc6ccccc6s5)c4C3)nc2C(=O)O)cnn1CC12CC3(C)CC(C)(C1)CC(OCCNCCS(N)(=O)=O)(C3)C2` [Compound W3.18, 6-[8-(1,3-benzothiazol-2-ylcarbamoyl)-3,4-dihydroisoquinolin-2(1H)-yl]-3-{1-[(3,5-dimethyl-7-{2-[(2-sulfamoylethyl)amino]ethoxy}tricyclo[3.3.1.1^3,7]dec-1-yl)methyl]-5-methyl-1H-pyrazol-4-yl}pyridine-2-carboxylic acid] are 14 nM, 0.19 nM and 0.038 nM.
With `CNCCOC12CC3(C)CC(C)(CC(Cn4ncc(-c5ccc(N6CCc7c(OC)ccc(C(=O)Nc8nc9ccccc9s8)c7C6)nc5C(=O)O)c4C)(C3)C1)C2` [Compound W3.09, 6-[8-(1,3-benzothiazol-2-ylcarbamoyl)-5-methoxy-3,4-dihydroisoquinolin-2(1H)-yl]-3-[1-({3,5-dimethyl-7-[2-(methylamino)ethoxy]tricyclo[3.3.1.1^3,7]dec-1-yl}methyl)-5-methyl-1H-pyrazol-4-yl]pyridine-2-carboxylic acid], the concentration giving a half-maximal response (EC50) in experiment [1] was found to be 3.8 nM. In addition, the Ki was 0.14 nM in experiment [2] (setting [3]) and < 0.001 nM in experiment [2] (setting [4]).
In the same order, the values of `CNCCOC12CC3(C)CC(C)(CC(Cn4ncc(-c5ccc(-c6ccc7[nH]nc(C(=O)Nc8nc9ccccc9s8)c7c6)nc5C(=O)O)c4C)(C3)C1)C2` [Compound W3.33, 6-[3-(1,3-benzothiazol-2-ylcarbamoyl)-1H-indazol-5-yl]-3-[1-({3,5-dimethyl-7-[2-(methylamino)ethoxy]tricyclo[3.3.1.1^3,7]dec-1-yl}methyl)-5-methyl-1H-pyrazol-4-yl]pyridine-2-carboxylic acid] are 422 nM, 0.319 nM and 0.044 nM.
Regarding `Cc1c(-c2ccc(N3CCc4cccc(C(=O)Nc5nc6ccccc6s5)c4C3)nc2C(=O)O)cnn1CC12CC3(C)CC(C)(C1)CC(OCCNC1COC1)(C3)C2` [Compound W3.16, 6-[8-(1,3-benzothiazol-2-ylcarbamoyl)-3,4-dihydroisoquinolin-2(1H)-yl]-3-[1-({3,5-dimethyl-7-[2-(oxetan-3-ylamino)ethoxy]tricyclo[3.3.1.1^3,7]dec-1-yl}methyl)-5-methyl-1H-pyrazol-4-yl]pyridine-2-carboxylic acid], the EC50 in experiment [1] is 3.7 nM. Further, the figures for the Ki in experiment [2] (setting [3]) and in experiment [2] (setting [4]) were 0.14 nM and < 0.001 nM, respectively.
In the same order, the values of `COCCNCCOC12CC3(C)CC(C)(CC(Cn4ncc(-c5ccc(N6CCc7c(OC)ccc(C(=O)Nc8nc9ccccc9s8)c7C6)nc5C(=O)O)c4C)(C3)C1)C2` [Compound W3.12, 6-[8-(1,3-benzothiazol-2-ylcarbamoyl)-5-methoxy-3,4-dihydroisoquinolin-2(1H)-yl]-3-{1-[(3-{2-[(2-methoxyethyl)amino]ethoxy}-5,7-dimethyltricyclo[3.3.1.1^3,7]dec-1-yl)methyl]-5-methyl-1H-pyrazol-4-yl}pyridine-2-carboxylic acid] are 2.6 nM, 0.051 nM and 0.0042 nM.
For `CNCCOC12CC3(C)CC(C)(CC(Cn4ncc(-c5ccc(-c6ccc7cccc(C(=O)Nc8nc9ccccc9s8)c7c6)nc5C(=O)O)c4C)(C3)C1)C2` [Compound W3.06, 6-[8-(1,3-benzothiazol-2-ylcarbamoyl)naphthalen-2-yl]-3-[1-({3,5-dimethyl-7-[2-(methylamino)ethoxy]tricyclo[3.3.1.1^3,7]dec-1-yl}methyl)-5-methyl-1H-pyrazol-4-yl]pyridine-2-carboxylic acid] the same measures were 3.8 nM, 0.22 nM and < 0.001 nM.
In the same order, the values of `Cc1c(-c2ccc(N3CCn4c(C(F)(F)F)nc(C(=O)Nc5nc6ccccc6s5)c4C3)nc2C(=O)O)cnn1CC12CC3(C)CC(C)(C1)CC(OCCN)(C3)C2` [Compound W3.20, 3-(1-{[3-(2-aminoethoxy)-5,7-dimethyltricyclo[3.3.1.1^3,7]dec-1-yl]methyl}-5-methyl-1H-pyrazol-4-yl)-6-[1-(1,3-benzothiazol-2-ylcarbamoyl)-3-(trifluoromethyl)-5,6-dihydroimidazo[1,5-a]pyrazin-7(8H)-yl]pyridine-2-carboxylic acid] are 18.2 nM, 0.014 nM and < 0.01 nM.
On to `Cc1c(-c2ccc(N3CCc4cccc(C(=O)Nc5nc6ccccc6s5)c4C3)nc2C(=O)O)cnn1CC12CC3(C)CC(C)(C1)CC(OCCNC1CN(S(C)(=O)=O)C1)(C3)C2` [Compound W3.31, 6-[8-(1,3-benzothiazol-2-ylcarbamoyl)-3,4-dihydroisoquinolin-2(1H)-yl]-3-(1-{[3,5-dimethyl-7-(2-{[1-(methylsulfonyl)azetidin-3-yl]amino}ethoxy)tricyclo[3.3.1.1^3,7]dec-1-yl]methyl}-5-methyl-1H-pyrazol-4-yl)pyridine-2-carboxylic acid], for which, in experiment [1], the EC50 was 14.4 nM. Further, the Ki was determined as 0.684 nM in experiment [2] (setting [3]) and 0.012 nM in experiment [2] (setting [4]).
